This is an account of results in article PMC13286573, “Exploration of precision coregulator TR-FRET identifies diverse signatures for LXR ligands relevant to discovery of nonlipogenic ABCA1 inducers” (eLife, 2026).

In assay [1] the target is T1, LXRα (Homo sapiens, UniProt Q13133).
T1 sequence (Q13133 209-447 limits assumed): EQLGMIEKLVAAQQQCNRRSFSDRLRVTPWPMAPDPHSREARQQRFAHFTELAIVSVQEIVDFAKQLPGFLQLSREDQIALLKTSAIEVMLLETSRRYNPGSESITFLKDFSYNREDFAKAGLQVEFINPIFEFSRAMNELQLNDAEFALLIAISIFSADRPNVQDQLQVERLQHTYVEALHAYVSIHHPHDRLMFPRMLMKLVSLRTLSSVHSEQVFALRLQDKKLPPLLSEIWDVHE
In words: SRC-1 coactivator recruitment to LXRα, coregulator TR-FRET (CRT). The class given is biochemical. Set-up: The CRT selectivity assay incorporates GST-tagged LXR-LBD; purchased Thermo Fisher Scientific PV4657. The note with it: in the presence of 24HC (3 µM). A general note: TR-FRET usually uses a lanthanide donor and a delayed reading to cut background.

For assay [2], the system named is SREBF1, FAS, and SCD1. In words: RT-PCR of lipogenic genes SREBF1, FAS, SCD1 in HepG2 cells. As to conditions: HepG2, same conditions as SRE-luc. It is filed as cell-based, human. How it is done: Three of the biphenyl sulfones, XL041, XL652, and SR9238, gave anomalous activation data at concentrations above 1 µM, associated with interference with the nanoluciferase reporter (Figure 5—figure supplement 1). Owing to the anomalous response in the reporter assay, we measured lipogenic genes, SREBF1, FAS, and SCD1 by RT-PCR in HepG2 cells in response to treatment with the biphenyl sulfones (Figure 5G–I).
HepG2 cells were seeded in 12-well plates and treated with compounds for 24 hr. Following treatment, cells were washed once with PBS and then lysed in 350 μL of RLT buffer (Qiagen). Lysates were immediately frozen at −80 °C until RNA extraction. Total RNA was extracted using RNeasy Plus Mini columns (Qiagen) according to the manufacturer’s instructions. RNA concentration and purity were assessed using the A260/A280 ratio measured on a Synergy Neo2 plate reader (BioTek). […] Quantitative PCR was performed using TaqMan Gene Expression Master Mix (Invitrogen) with 2 μL of cDNA and gene-specific TaqMan probes in a 20 μL reaction volume per well. The following TaqMan assays were used: ABCA1: Hs01059101_m1, SREBF1: Hs01088691_m1, SCD: Hs01682761_m1, FASN: Hs01005622_m1, and HPRT1 (endogenous control): Hs02800695_m1. qPCR was performed on a StepOne Real-Time PCR System (Applied Biosystems), and gene expression was quantified using the ΔΔCt method.

Assay [3] concerns the target T2, LXRβ (Homo sapiens, UniProt P55055).
T2 sequence (P55055 222-460 limits assumed): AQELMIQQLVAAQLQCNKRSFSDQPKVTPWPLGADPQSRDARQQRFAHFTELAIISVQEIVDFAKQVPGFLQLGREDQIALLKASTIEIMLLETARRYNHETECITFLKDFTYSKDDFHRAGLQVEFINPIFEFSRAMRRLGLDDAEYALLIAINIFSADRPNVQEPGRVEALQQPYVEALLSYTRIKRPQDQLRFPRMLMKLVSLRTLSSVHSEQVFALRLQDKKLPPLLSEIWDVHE
In words: SRC-1 coactivator recruitment to LXRβ, coregulator TR-FRET (CRT). The class given is biochemical. On the set-up: The CRT selectivity assay incorporates GST-tagged LXR-LBD; purchased Thermo Fisher Scientific PV4660.

Assay [4] has as its target T2, LXRβ. In words: NCOR2 corepressor binding to LXRβ, CRT. The class given is biochemical. As to conditions: read-out: NCOR2β, relative % activity at 1 μM. Set-up: The CRT selectivity assay incorporates GST-tagged LXR-LBD; purchased Thermo Fisher Scientific PV4660.
Assay [5] addresses T2, LXRβ. As to the kind of experiment: SMRT2 corepressor binding to LXRβ, CRT. The class given is biochemical. Set-up: The CRT selectivity assay incorporates GST-tagged LXR-LBD; purchased Thermo Fisher Scientific PV4660. As to conditions: for activity at 1 µM: read-out: SMRT2β, relative % activity at 1 μM.
The subject of assay [6] is LXR. As to the kind of experiment: Categorization of ligands by CRT/pCRT signature. The class given is biochemical. As to conditions: response at 1 µM ligand compared with theoretical signatures. An excerpt:
With the knowledge that, in pCRT, corepressors bind to the apo-receptor; whereas coactivator binding requires a ligand-induced conformational change, we can categorize all ligands using their CRT profiles. Ligands induce three LXR conformational ensembles with CoR (destabilizing D, stabilizing S, neutral N) and only two conformations with CoA (stabilizing S, neutral N) (Figure 9 (Table 1)). In categorizing ligands based upon these CRT characteristics, labels are needed.
The category for each ligand is not always identical for LXRα vs. LXRβ. Similarly, the phenotype associated with each classification is isoform dependent. Recruitment of CoA to LXRβ by FA, WA, and PA will activate transcription; whereas, lack of recruitment by SA, HA, and RA will antagonize transcription (Figure 9 (Table 1)). Stabilization of CoA and/or destabilization of CoR bound to LXRα is a derepression mechanism leading to activation/transcription for FA, WA, and RA; whereas partial activation is expected for PA.
To determine which LXR ligands fit with these theoretical CRT signatures, concentration-response curves were interpolated to measure normalized response at 1 µM ligand concentration and plotted as a heat map (Figure 9A).

Assay [7] has as its target T1, LXRα. The note with it: in the absence of agonist.
Assay [8] concerns the target T2, LXRβ. The note with it: in the absence of agonist.
Assay [9] concerns obese mice on HFD. On the set-up: method as in Griffett et al., 2015. As to conditions: ref Griffett et al., 2015; cited from earlier work.

Where two headings read alike, the source gives them in different places.

For the molecule `Cc1cc(C)c(S(=O)(=O)N(Cc2ccc(-c3cccc(S(C)(=O)=O)c3)cc2)Cc2ccc(C(F)(F)F)o2)c(C)c1` [GSK2033], the “Antagonism of 24HC agonism at LXRα (SRC-1 CRT)” value in assay [1] is “without effect on LXRα”. Further, the “Lipogenic gene transcription (SREBF1, FAS, SCD1) by RT-PCR” value in [2] is on record as “reducing lipogenic gene transcription below baseline”. In assay [3], the “Antagonism of 24HC agonism at LXRβ (SRC-1 CRT)” value is reported as “antagonized the agonism of 24HC at LXRβ”. Moreover, in [4], the activity at 1 µM came out at 57.7%. In assay [5], the “Effect on SMRT2 binding to LXRβ” value was “selectively displace SMRT2 from LXRβ” and the activity at 1 µM was found to be 93.4%. The CRT/pCRT signature category entry in assay [6] was “HA (hard antagonist (HA))”.

In the case of `CCOC(=O)c1ccc(CN(Cc2ccc(-c3cccc(S(C)(=O)=O)c3)cc2)S(=O)(=O)c2c(C)cc(C)cc2C)o1` [SR9238], in assay [7], the “Coactivator recruitment to LXRα” value is listed as “unable to recruit coactivators to LXRα”. Besides, in [1], the “Antagonism of 24HC agonism at LXRα (SRC-1 CRT)” value is “without effect on LXRα”. Also, the “Coactivator recruitment to LXRβ” value in [8] is given as “very weakly supported coactivator recruitment to LXRβ”. Besides, the “Lipogenic gene transcription (SREBF1, FAS, SCD1) by RT-PCR” value in assay [2] is “reducing lipogenic gene transcription below baseline”. Also, the “Antagonism of 24HC agonism at LXRβ (SRC-1 CRT)” value in assay [3] (in the presence of 24HC (3 µM)) is on record as “antagonized the agonism of 24HC at LXRβ”. In addition, the “Plasma TG” value in [9] was “plasma TG was suppressed”. Also, the activity at 1 µM in [4] stood at 21.9%; in assay [5], 69.2%. In addition, the CRT/pCRT signature category result in assay [6] is on record as “RA (reverse agonist (RA))”.
